Values after ≈ are worked out from the molar mass of the structure shown.
How the values were obtained:
[1] = pH-solubility of linsitinib free base and selected salts (pH 1.5 to 6.5, overnight equilibration, HPLC); type: physicochemical; details: for solubility: aqueous solution, thermodynamic from solid, overnight equilibration, read-out: Solubility; for Final pH: after overnight equilibration
Protocol: The pH-solubility of selected salts (Phosphate 1, L-Malate 1, Esylate 1, and Esylate 2) was evaluated and compared with linsitinib free base. The solubility analysis was conducted in a manner consistent with a previous study that was performed with linsitinib free base. Aqueous solutions were prepared between pH 1.5 and pH 6.5 in 0.5 pH unit increments via titration of the solution using NaOH and HCl. For each salt or the free base, an attempt was made to reach saturation in each of the solutions by adding sufficient material to the solution such that excess solids remained. If saturation was achieved, the pH of the solution was measured and adjusted to the target pH and additional material was added if needed. The samples were then equilibrated overnight. The final pH of the solution was measured, the solids were filtered and selected samples were analyzed by PXRD. The concentration of linsitinib in the filtrate was quantitated by HPLC (diluted as needed). In some cases, significant drift (+1 pH unit or more) of the final pH from the target pH was observed after the overnight equilibration.
The pH-solubility data is shown graphically in FIG. 89. […] Indeed, it should be noted that in the majority of the low pH systems, higher initial dissolution/solubility was observed followed by precipitation of the material from solution upon longer equilibration.

[2] = Equilibrium solubility in bio-relevant media (FaSSGF pH 1.6, FaSSIF pH 6.5); type: physicochemical; details: for solubility: thermodynamic from solid, read-out: Solubility; for Solubility compared with the free base: in words
From the text: In addition to the pH-solubility data, a comparison of the equilibrium solubility of linsitinib free base and salts in two bio-relevant media (Table 28), fasted state simulated gastric fluid (FaSSGF pH 1.6) and intestinal fluid (FaSSIF pH 6.5) was completed. […] A saturated solution of Esylate 1 was not achieved during this study and therefore the equilibrium solubility could be higher than determined. It should be noted that variability of almost a full pH unit was noted among the samples making a direct comparison more challenging.

[3] = cited from earlier work
[4] = cited from earlier work; remark: listed apart in the source
[5] = Heating experiments with selected malate samples; type: physicochemical
Protocol: Based on the thermal data, Malate 4 and Malate 5 were heated at […] for 15 minutes. The solids were re-analyzed by PXRD after heating to investigate any form change upon dehydration. […] While there was an insufficient amount of sample to further characterize Malate 7, based on the conditions upon which it was generated, it could be a lower hydrate or an anhydrous form.

[6] = Water activity boundary between malate forms; type: physicochemical; details: or 90% relative humidity
Protocol: Malate 2, Malate 4, and Malate 5 were all obtained from high water activity conditions and are suspected to be hydrated forms. Based on the weight loss in the TG thermograms of Malate 4 and Malate 5, they could be di-hydrates. The water activity boundary between Malate 4 and Malate 1 was determined to be approximately 0.9 water activity, or 90% relative humidity. At a water activity of 0.8, Malate 1 was obtained; however, there were additional peaks present by PXRD. […]

[7] = Thermogravimetric analysis (TGA); type: physicochemical; details: start to 65° C.
Protocol: The TG analysis was carried out using a TA Instruments […] Discovery Series instrument. The instrument balance was calibrated using class M weights and the temperature calibration was performed using alumel. The nitrogen purge was 10 mL per minute at the balance and 25 mL per minute at the furnace. The sample was placed into a pre-tared platinum pan and heated from approximately 25° C. to 300° C. at a rate of 10° C. per minute.

[8] = Polymorph screen of linsitinib malate (PXRD/XRPD result); type: physicochemical; details: polymorph screen of linsitinib malate; slurry, cooling, precipitation or lyophilization; solvent and conditions per sample no.; listed as 4-10
Protocol: A Rigaku SmartLab X-Ray Diffractometer was configured in Bragg-Brentano reflection geometry equipped with a beam stop and knife edge to reduce incident beam and air scatter.
A polymorph screen of linsitinib malate was conducted. Experiments were designed to target thermodynamically stable forms and therefore utilized techniques such as long-term slurry, cooling, anti-solvent addition, and evaporation. Reaction crystallization experiments with linsitinib free base and L-malic acid were also conducted. Additionally, non-crystalline material was used as an alternative starting material as this can provide access to polymorphs that would not be accessible from crystalline starting material.

[9] = pH 4, aqueous buffer, target pH 4.0, * = clear solution, not equilibrium value
[10] = pH 4.5, aqueous buffer, target pH 4.5, * = clear solution, not equilibrium value
[11] = pH 5, aqueous buffer, target pH 5.0
[12] = pH 5.5, aqueous buffer, target pH 5.5
[13] = pH 6, aqueous buffer, target pH 6.0
[14] = pH 6.5, aqueous buffer, target pH 6.5
[15] = pH adjusted with NaOH and HCl, pH 1.5, aqueous buffer, target pH 1.5, * = clear solution, not equilibrium value
[16] = pH adjusted with NaOH and HCl, pH 2, aqueous buffer, target pH 2.0, * = clear solution, not equilibrium value
[17] = pH adjusted with NaOH and HCl, pH 2.5, aqueous buffer, target pH 2.5, * = clear solution, not equilibrium value
[18] = pH adjusted with NaOH and HCl, pH 3, aqueous buffer, target pH 3.0, * = clear solution, not equilibrium value
[19] = pH adjusted with NaOH and HCl, pH 3.5, aqueous buffer, target pH 3.5, * = clear solution, not equilibrium value
[20] = fasted state simulated gastric fluid (FaSSGF), pH 1.6, fassgf or other biorelevant, FaSSGF (pH 1.6)
[21] = fasted state simulated intestinal fluid (FaSSIF), pH 6.5, fassif, FaSSIF (pH 6.5)

Row | solubility [1, 9] [µg/mL] | solubility [1, 10] [µg/mL] | solubility [1, 11] [µg/mL] | solubility [1, 12] [µg/mL] | solubility [1, 13] [µg/mL] | solubility [1, 14] [µg/mL] | solubility [1, 15] [µg/mL] | solubility [1, 16] [µg/mL] | solubility [1, 17] [µg/mL] | solubility [1, 18] [µg/mL] | solubility [1, 19] [µg/mL] | Final pH ([1]; target pH 1.5) | Final pH ([1]; target pH 2.0) | Final pH ([1]; target pH 2.5) | Final pH ([1]; target pH 3.0) | Final pH ([1]; target pH 3.5) | Final pH ([1]; target pH 4.0) | Final pH ([1]; target pH 4.5) | Final pH ([1]; target pH 5.0) | Final pH ([1]; target pH 5.5) | SMILES | other results
1 | 116 | 5.1 | 1.2 | 1.7 | 1 | 1.2 | 54000 | 23600 | 17600 | 15000 | 1730 | 1.52 | 2.04 | 2.33 | 2.76 | 3.64 | 4.18 | 5.54 | 6.18 | 6.43 | C[C@]1(O)C[C@@H](c2nc(-c3ccc4ccc(-c5ccccc5)nc4c3)c3c(N)nccn32)C1 [Linsitinib free base, Cis-3-[8-amino-1-(2-phenyl-7-quinolinyl)imidazo[1,5-a]pyrazin-3-yl]-1-methyl-cyclobutanol, reference compound] | Final pH ([1]; target pH 6.0): 7.02; Final pH ([1]; target pH 6.5): 6.43; Final pH ([2]; FaSSGF (pH 1.6)): 4.04; Final pH ([2]; FaSSIF (pH 6.5)): 6.57; solubility [2, 20]: 7670 µg/mL (≈ 18.2 mM); solubility [2, 21]: 25 µg/mL (≈ 0.0593 mM); Hygroscopicity ([3]; anhydrous/non-solvated free base form): non-hygroscopic; Solubility under acidic conditions [3]: good solubility; Permeability [4]: good permeability
2 | – | – | – | – | – | – | – | – | – | – | – | – | – | – | – | – | – | – | – | – | C[C@]1(O)C[C@@H](c2nc(-c3ccc4ccc(-c5ccccc5)nc4c3)c3c(N)nccn32)C1.O=C(O)C[C@H](O)C(=O)O [Malate 4] | XRPD result after heating ([5]; 92° C., 15 min): Malate 7; Form change upon heating (PXRD) ([5]; heated for 15 minutes): dehydrate to a new form, designated as Malate 7; Water activity boundary between Malate 4 and Malate 1 [6]: approximately 0.9 water activity; TGA Results (weight loss) [7]: 7.3%, start to 65 °C; PXRD Results [8]: Malate 4
3 | 1340 | 337 | 274 | 192 | 122 | 16.5 | 82300 | 74000 | 39000 | 15300 | 4290 | 1.45 | 2.02 | 2.37 | 2.80 | 3.08 | 3.38 | 5.05 | 5.16 | 5.32 | C[C@]1(O)C[C@@H](c2nc(-c3ccc4ccc(-c5ccccc5)nc4c3)c3c(N)nccn32)C1.O=C(O)C[C@H](O)C(=O)O [L-Malate 1] | Solubility compared with the free base or Phosphate 1 ([1]; lower pH (<3)): significantly higher solubility; Final pH ([1]; target pH 6.0): 5.50; Final pH ([1]; target pH 6.5): 5.18; Final pH ([2]; FaSSGF (pH 1.6)): 2.97; Solubility compared with the free base ([2]; FaSSGF (pH 1.6)): largely comparable; Final pH ([2]; FaSSIF (pH 6.5)): 5.46; Solubility compared with the free base ([2]; FaSSIF (pH 6.5)): higher solubility than the free base; solubility [2, 20]: 8130 µg/mL; solubility [2, 21]: 44 µg/mL; Water activity boundary between Malate 4 and Malate 1 [6]: approximately 0.9 water activity
